Results: ChEMBL document CHEMBL1201862, “PubChem BioAssay data set” (2004)
The source made the active and inactive calls.

Legend:
[1] = growth suppression of PTEN-null colon cells, dose response, cell-based, HCT116 PTEN knockout (AID 1047); assay type: functional;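 further: HCT116 colon tumor cells with PTEN knocked out; cells exposed to compound for 60 hours before readout; potency for loss of cell viability measured by luminescence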
[2] = growth suppression of beta-catenin-knockout colon cells, dose response, cell-based, HCT116, human colon tumor (AID 1045); assay type: functional;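 further: HCT116 colon tumor cells with beta catenin knocked out; cells exposed to compound for 60 hours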
[3] = Luminescence Cell-Based Dose Retest to Confirm Inhibitors of Cancer Stem Cells. [Related pubchem assays (depositor defined):AID2717, AID2721]; assay type: functional; conditions: Homo sapiens
[4] = cytotoxicity in HMLE control line with eGFP shRNA, dose response, counter-screen for HMLE_sh_ECad selective toxicity project, cell-based, HMLE_sh_eGFP, luminescence (AID 463074); assay type: functional, Homo sapiens;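 further: HMLE human mammary epithelial cells expressing control shRNA against eGFP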
[5] = Luminescence Cell-Based/Microorganism Confirmation at Dose of Inhibitors of Trypanosoma cruzi Infection. [Related pubchem assays: 1885, 1968 ]; assay type: functional
[6] = Luminescence Cell-Based Secondary HTS screen to identify cytotoxic compounds of NIH3T3 cells. [Related pubchem assays: 1885, 1968 ]; assay type: functional
[7] = inhibitors of Trypanosoma cruzi host-cell infection, confirmation, beta-gal luminescence, NIH3T3 host cells (AID 2630); assay type: functional, cell-based; conditions: Mus musculus
[8] = molecular target: T1, Dual specificity protein phosphatase 3 (Homo sapiens, UniProt P51452); experiment: VHR1 phosphatase inhibitors, primary screen, biochemical, absorbance, uHTS (AID 1654)
T1 sequence (P51452 whole entry): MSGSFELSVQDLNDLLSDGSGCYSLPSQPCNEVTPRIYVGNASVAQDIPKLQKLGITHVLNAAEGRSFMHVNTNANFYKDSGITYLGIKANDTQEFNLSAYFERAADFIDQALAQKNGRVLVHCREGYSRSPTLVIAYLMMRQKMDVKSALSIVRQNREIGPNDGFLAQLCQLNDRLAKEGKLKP

[9] = molecular target: T1, Dual specificity protein phosphatase 3; experiment: VHR1 phosphatase inhibitors, biochemical (AID 1878)
[10] = molecular target: T2, Dual specificity protein phosphatase 6 (Rattus norvegicus, UniProt Q64346); experiment: MKP-3 phosphatase inhibitors, primary screen, biochemical, rat enzyme, in vitro (AID 425)
T2 sequence (Q64346 whole entry): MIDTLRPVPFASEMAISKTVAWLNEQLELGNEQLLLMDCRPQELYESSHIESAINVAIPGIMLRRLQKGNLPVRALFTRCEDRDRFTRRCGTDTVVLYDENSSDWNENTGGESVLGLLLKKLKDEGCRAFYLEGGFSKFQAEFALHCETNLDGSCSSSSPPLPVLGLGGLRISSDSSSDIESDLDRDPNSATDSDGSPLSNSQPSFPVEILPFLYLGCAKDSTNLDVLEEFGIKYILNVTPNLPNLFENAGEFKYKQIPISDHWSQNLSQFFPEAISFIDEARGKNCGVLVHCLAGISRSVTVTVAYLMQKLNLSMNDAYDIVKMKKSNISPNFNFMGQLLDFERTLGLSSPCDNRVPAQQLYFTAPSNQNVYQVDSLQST

[11] = molecular target: T1, Dual specificity protein phosphatase 3; experiment: SAR VHR1 absorbance Assay for In Vitro dose response studies. [Related pubchem assays (depositor defined):AID1654, AID1661, AID1878, AID1992, AID2004]
[12] = molecular target: T1, Dual specificity protein phosphatase 3; experiment: SAR VHR1 Fluorescent Assay for In Vitro dose response studies. [Related pubchem assays (depositor defined):AID1654, AID1661, AID1878, AID1992, AID2004, AID2070, AID2085]; assay type: functional
[13] = molecular target: T3, Tyrosine-protein phosphatase non-receptor type 7 (Homo sapiens, UniProt P35236); experiment: redox-dependent HePTP inhibition, mechanism study, biochemical, fluorescence (AID 2068); assay type: functional
T3 sequence (P35236 whole entry): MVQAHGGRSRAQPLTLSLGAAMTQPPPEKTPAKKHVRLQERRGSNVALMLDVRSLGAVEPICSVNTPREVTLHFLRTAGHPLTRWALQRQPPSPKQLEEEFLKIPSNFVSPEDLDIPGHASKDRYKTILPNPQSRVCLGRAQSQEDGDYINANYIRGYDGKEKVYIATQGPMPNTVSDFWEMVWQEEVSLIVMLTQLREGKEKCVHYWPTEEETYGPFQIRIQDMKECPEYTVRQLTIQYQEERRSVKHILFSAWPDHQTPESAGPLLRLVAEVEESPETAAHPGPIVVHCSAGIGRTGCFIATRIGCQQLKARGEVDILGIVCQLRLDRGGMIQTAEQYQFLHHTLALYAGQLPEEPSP

[14] = molecular target: T2, Dual specificity protein phosphatase 6; assay type: functional
[15] = molecular target: Tyrosine-protein phosphatase non-receptor type 11 (Homo sapiens, UniProt Q06124); experiment: SHP2 phosphatase inhibition, dose response, selectivity assay for STEP inhibitor project, biochemical (AID 602367); assay type: functional; conditions: read-out: IC50_Mean
Chain of Tyrosine-protein phosphatase non-receptor type 11 (Q06124 whole entry): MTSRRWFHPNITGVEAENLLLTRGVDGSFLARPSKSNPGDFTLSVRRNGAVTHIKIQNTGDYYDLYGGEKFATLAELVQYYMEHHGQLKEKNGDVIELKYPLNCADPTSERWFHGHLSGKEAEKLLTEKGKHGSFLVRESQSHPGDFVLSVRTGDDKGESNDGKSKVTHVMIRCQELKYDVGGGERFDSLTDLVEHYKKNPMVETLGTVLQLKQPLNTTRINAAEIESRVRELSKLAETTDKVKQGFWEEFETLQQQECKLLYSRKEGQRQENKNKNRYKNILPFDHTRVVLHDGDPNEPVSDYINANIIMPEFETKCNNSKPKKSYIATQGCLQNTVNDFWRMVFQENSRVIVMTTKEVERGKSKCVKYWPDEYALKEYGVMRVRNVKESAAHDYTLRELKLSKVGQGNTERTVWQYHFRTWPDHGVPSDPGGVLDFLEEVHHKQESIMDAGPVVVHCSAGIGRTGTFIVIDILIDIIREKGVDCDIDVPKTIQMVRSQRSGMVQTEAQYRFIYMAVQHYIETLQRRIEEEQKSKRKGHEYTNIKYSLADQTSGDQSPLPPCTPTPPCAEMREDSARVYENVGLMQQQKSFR

[16] = molecular target: Tyrosine-protein phosphatase non-receptor type 5 (Homo sapiens, UniProt P54829); experiment: STEP phosphatase inhibitors, confirmation, biochemical, fluorescence intensity, uHTS hits (AID 602372); assay type: functional; conditions: read-out: IC50_Mean
Chain of Tyrosine-protein phosphatase non-receptor type 5 (P54829 whole entry): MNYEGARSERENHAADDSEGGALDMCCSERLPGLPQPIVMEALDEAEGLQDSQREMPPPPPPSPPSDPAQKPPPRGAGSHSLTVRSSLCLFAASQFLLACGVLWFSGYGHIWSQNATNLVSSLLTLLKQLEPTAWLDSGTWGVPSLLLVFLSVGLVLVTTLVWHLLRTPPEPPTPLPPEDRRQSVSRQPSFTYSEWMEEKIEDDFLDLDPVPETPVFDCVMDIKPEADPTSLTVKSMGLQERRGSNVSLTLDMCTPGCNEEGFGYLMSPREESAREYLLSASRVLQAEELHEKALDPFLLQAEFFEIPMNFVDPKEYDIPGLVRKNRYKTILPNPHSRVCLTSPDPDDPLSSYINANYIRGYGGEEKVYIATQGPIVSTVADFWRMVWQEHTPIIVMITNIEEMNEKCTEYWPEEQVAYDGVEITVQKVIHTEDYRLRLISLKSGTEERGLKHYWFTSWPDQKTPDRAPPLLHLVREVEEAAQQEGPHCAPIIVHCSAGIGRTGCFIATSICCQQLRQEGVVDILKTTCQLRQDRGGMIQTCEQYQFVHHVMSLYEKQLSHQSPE

[17] = molecular target: T1, Dual specificity protein phosphatase 3; experiment: VHR phosphatase inhibition, dose response, selectivity assay for STEP inhibitor project, biochemical (AID 602374); assay type: functional; conditions: read-out: IC50_Mean

Q: Which EC50 [1] does the source give for `O=C(N/N=C/c1cn(-c2cccs2)nc1-c1ccccc1)c1ccccc1Br` here?
A: Its EC50 is 30.2 µM (active).

Q: What about the EC50 [2] of the same compound?
A: The EC50 was 31 µM (active).

Q: What about the AC50 [3] of the same compound?
A: Its AC50 is 3.75 µM (active).

Q: What about the AC50 [4] of the same compound?
A: The AC50 was 23 µM (active).

Q: Which EC50 [5] does the source give for `Fc1ccc(CCNCc2ccc(Cl)c(Cl)c2)cc1` here?
A: The EC50 was 0.915 µM (active).

Q: And the EC50 [6]?
A: The EC50 was > 195 µM (not active).

Q: And the EC50 [7]?
A: The EC50 was 0.915 µM (active).

Q: What does the source list for `S=C(c1cn(CCOc2ccccc2)c2ccccc12)N1CCCC1`?
A: IC50 [8]: 3.97 µM (active); IC50 [9]: 8.8 µM (active); IC50 [10]: > 158 µM (not active); IC50 [11]: 0.727 µM (active); IC50 [12]: > 99 µM (inactive); IC50 [13]: 0.129 µM (active); IC50 [14]: > 99 µM (inactive); IC50 [15]: 5.47 µM (active); IC50 [16]: 17 µM (active); IC50 [17]: 1.27 µM (active)
